Experimental data: ChEMBL document CHEMBL3352697, “Molecular modeling studies of atorvastatin analogues as HMGR inhibitors using 3D-QSAR, molecular docking and molecular dynamics simulations” (Bioorg Med Chem Lett, 2014)

Molecular target: T1, 3-hydroxy-3-methylglutaryl-coenzyme A reductase (Homo sapiens, UniProt P04035)
T1 sequence (P04035 whole entry): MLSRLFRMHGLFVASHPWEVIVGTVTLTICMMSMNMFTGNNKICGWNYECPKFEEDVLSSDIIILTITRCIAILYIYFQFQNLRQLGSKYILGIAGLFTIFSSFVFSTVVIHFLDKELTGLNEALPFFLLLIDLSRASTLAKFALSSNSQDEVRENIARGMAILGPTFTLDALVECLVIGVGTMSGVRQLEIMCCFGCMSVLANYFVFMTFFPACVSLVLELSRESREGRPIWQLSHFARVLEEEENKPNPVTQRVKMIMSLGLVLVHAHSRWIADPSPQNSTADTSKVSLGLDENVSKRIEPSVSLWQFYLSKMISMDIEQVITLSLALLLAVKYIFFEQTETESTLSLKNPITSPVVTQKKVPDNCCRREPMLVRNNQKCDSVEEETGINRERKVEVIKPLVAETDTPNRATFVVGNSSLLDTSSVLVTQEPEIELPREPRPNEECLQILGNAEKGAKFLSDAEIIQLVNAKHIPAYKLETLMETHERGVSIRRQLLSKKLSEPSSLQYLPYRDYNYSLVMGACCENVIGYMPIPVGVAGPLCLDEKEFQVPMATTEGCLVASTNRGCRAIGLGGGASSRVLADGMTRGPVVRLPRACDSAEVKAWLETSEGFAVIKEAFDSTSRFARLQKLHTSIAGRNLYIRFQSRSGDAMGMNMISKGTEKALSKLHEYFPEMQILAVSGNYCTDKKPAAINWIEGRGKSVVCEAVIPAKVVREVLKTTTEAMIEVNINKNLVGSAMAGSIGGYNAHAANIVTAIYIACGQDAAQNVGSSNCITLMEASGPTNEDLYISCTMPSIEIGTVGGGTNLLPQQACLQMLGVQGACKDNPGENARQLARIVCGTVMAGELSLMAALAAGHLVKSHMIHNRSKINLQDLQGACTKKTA
Experiment: Inhibition of HMG-CoA reductase (unknown origin)

## CC(C)n1c(/C=C/[C@@H](O)C(F)(F)[C@@H](O)CC(=O)O)c(-c2ccc(F)cc2)c2ccccc21
  IC50: 8.89 nM
